#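 Values below derive from 48-hour exposures of cells grown in 96-well plates, with endpoints linearly interpolated between the two concentrations bracketing the appropriate inhibition level. At the GI50, growth is halved.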 Activity calls are given as the source filed them. No stated cut-off is given here; in the data, active = GI50 up to about 1.1 µM and inactive = higher.
# What was measured:
# Experiment in all cases: NCI anticancer screen, dose series, 48 h
# 786-0 = system: 786-0
# A498 = system: A498
# A549 = system: A549
# ACHN = system: ACHN
# BT-549 = system: BT-549
# CAKI-1 = system: CAKI-1
# CCRF-CEM = system: CCRF-CEM
# COLO 205 = system: COLO 205
# DU-145 = system: DU-145
# EKVX = system: EKVX
# HCT-116 = system: HCT-116
# HCT-15 = system: HCT-15
# HOP-62 = system: HOP-62
# HOP-92 = system: HOP-92
# HT-29 = system: HT-29
# Hs-578T = system: Hs-578T
# IGROV-1 = system: IGROV-1
# K562 = system: K562
# KM12 = system: KM12
# LOX IMVI = system: LOX IMVI
# M14 = system: M14
# MCF7 = system: MCF7
# MDA-MB-231 = system: MDA-MB-231
# MDA-MB-435 = system: MDA-MB-435
# MOLT-4 = system: MOLT-4
# Malme-3M = system: Malme-3M
# NCI-H226 = system: NCI-H226
# NCI-H23 = system: NCI-H23
# NCI-H460 = system: NCI-H460
# NCI-H522 = system: NCI-H522
# NCI/ADR-RES = system: NCI/ADR-RES
# OVCAR-3 = system: OVCAR-3
# OVCAR-4 = system: OVCAR-4
# OVCAR-5 = system: OVCAR-5
# OVCAR-8 = system: OVCAR-8
# PC-3 = system: PC-3
# RPMI-8226 = system: RPMI-8226
# RXF 393 = system: RXF 393
# SF-268 = system: SF-268
# SF-295 = system: SF-295
# SF-539 = system: SF-539
# SK-MEL-28 = system: SK-MEL-28
# SK-MEL-2 = system: SK-MEL-2
# SK-MEL-5 = system: SK-MEL-5
# SK-OV-3 = system: SK-OV-3
# SN12C = system: SN12C
# SNB-19 = system: SNB-19
# SNB-75 = system: SNB-75
# SR = system: SR
# SW-620 = system: SW-620
# T47D = system: T47D
# TK-10 = system: TK-10
# U-251 = system: U-251
# UACC-257 = system: UACC-257
# UACC-62 = system: UACC-62
# UO-31 = system: UO-31
# HCC 2998 = system: HCC 2998
# HL-60 = system: HL-60
smiles,measurement,setting,value
Cc1cc(NN)nc2[nH]nc(N)c12,GI50,786-0,> 100 µM (inactive)
same,GI50,A498,> 100 µM (inactive)
same,GI50,A549,> 100 µM (inactive)
same,GI50,ACHN,> 100 µM (inactive)
same,GI50,BT-549,> 100 µM (inactive)
same,GI50,CAKI-1,> 100 µM (inactive)
same,GI50,CCRF-CEM,> 100 µM (inactive)
same,GI50,COLO 205,> 100 µM (inactive)
same,GI50,DU-145,> 100 µM (inactive)
same,GI50,EKVX,> 100 µM (inactive)
same,GI50,HCT-116,> 100 µM (inactive)
same,GI50,HCT-15,> 100 µM
same,GI50,HOP-62,> 100 µM (inactive)
same,GI50,HOP-92,> 100 µM (inactive)
same,GI50,HT-29,> 100 µM (inactive)
same,GI50,Hs-578T,> 100 µM (inactive)
same,GI50,IGROV-1,> 100 µM (inactive)
same,GI50,K562,> 100 µM (inactive)
same,GI50,KM12,> 100 µM (inactive)
same,GI50,LOX IMVI,> 100 µM (inactive)
same,GI50,M14,> 100 µM (inactive)
same,GI50,MCF7,> 100 µM (inactive)
same,GI50,MDA-MB-231,45.4 µM (inactive)
same,GI50,MDA-MB-435,93.1 µM (inactive)
same,GI50,MOLT-4,43.3 µM (inactive)
same,GI50,Malme-3M,> 100 µM (inactive)
same,GI50,NCI-H226,> 100 µM (inactive)
same,GI50,NCI-H23,> 100 µM (inactive)
same,GI50,NCI-H460,> 100 µM (inactive)
same,GI50,NCI-H522,> 100 µM (inactive)
same,GI50,NCI/ADR-RES,> 100 µM (inactive)
same,GI50,OVCAR-3,> 100 µM (inactive)
same,GI50,OVCAR-4,> 100 µM (inactive)
same,GI50,OVCAR-5,> 100 µM (inactive)
same,GI50,OVCAR-8,> 100 µM (inactive)
same,GI50,PC-3,> 100 µM (inactive)
same,GI50,RPMI-8226,> 100 µM (inactive)
same,GI50,RXF 393,> 100 µM (inactive)
same,GI50,SF-268,> 100 µM (inactive)
same,GI50,SF-295,> 100 µM (inactive)
same,GI50,SF-539,> 100 µM (inactive)
same,GI50,SK-MEL-28,> 100 µM (inactive)
same,GI50,SK-MEL-2,> 100 µM (inactive)
same,GI50,SK-MEL-5,> 100 µM (inactive)
same,GI50,SK-OV-3,> 100 µM (inactive)
same,GI50,SN12C,> 100 µM (inactive)
same,GI50,SNB-19,> 100 µM (inactive)
same,GI50,SNB-75,> 100 µM (inactive)
same,GI50,SR,69.5 µM (inactive)
same,GI50,SW-620,> 100 µM (inactive)
same,GI50,T47D,> 100 µM (inactive)
same,GI50,TK-10,> 100 µM (inactive)
same,GI50,U-251,> 100 µM (inactive)
same,GI50,UACC-257,> 100 µM (inactive)
same,GI50,UACC-62,> 100 µM (inactive)
same,GI50,UO-31,> 100 µM (inactive)
Cn1c(CO)ccc1-c1ccc(-c2ccc(CO)[se]2)[se]1,GI50,786-0,9.04 µM (inactive)
same,GI50,A498,0.023 µM (active)
same,GI50,A549,15.4 µM (inactive)
same,GI50,ACHN,19.3 µM (inactive)
same,GI50,BT-549,11.1 µM (inactive)
same,GI50,CAKI-1,0.0176 µM (active)
same,GI50,CCRF-CEM,1.8 µM (inactive)
same,GI50,COLO 205,1.77 µM (inactive)
same,GI50,DU-145,12.9 µM (inactive)
same,GI50,EKVX,48.1 µM (inactive)
same,GI50,HCC 2998,0.705 µM (active)
same,GI50,HCT-116,0.859 µM (active)
same,GI50,HCT-15,9.82 µM
same,GI50,HL-60,7.91 µM (inactive)
same,GI50,HOP-62,7.28 µM (inactive)
same,GI50,HT-29,37.7 µM (inactive)
same,GI50,Hs-578T,> 100 µM (inactive)
same,GI50,IGROV-1,0.0621 µM (active)
same,GI50,K562,1.35 µM (inactive)
same,GI50,KM12,21.4 µM (inactive)
same,GI50,LOX IMVI,16.2 µM (inactive)
same,GI50,M14,10.4 µM (inactive)
same,GI50,MCF7,0.251 µM (active)
same,GI50,MDA-MB-231,21.2 µM (inactive)
same,GI50,MDA-MB-435,3.08 µM (inactive)
same,GI50,MOLT-4,3.76 µM (inactive)
same,GI50,Malme-3M,4.15 µM (inactive)
same,GI50,NCI-H226,0.408 µM (active)
same,GI50,NCI-H23,16.3 µM (inactive)
same,GI50,NCI-H460,18.4 µM (inactive)
same,GI50,NCI-H522,18.8 µM (inactive)
same,GI50,NCI/ADR-RES,33.9 µM (inactive)
same,GI50,OVCAR-3,2.01 µM (inactive)
same,GI50,OVCAR-4,0.578 µM (active)
same,GI50,OVCAR-8,6.89 µM (inactive)
same,GI50,PC-3,18.2 µM (inactive)
same,GI50,RPMI-8226,2.39 µM (inactive)
same,GI50,RXF 393,> 26.2 µM (inactive)
same,GI50,SF-268,> 78.5 µM (inactive)
same,GI50,SF-295,> 76.4 µM (inactive)
same,GI50,SF-539,67 µM (inactive)
same,GI50,SK-MEL-28,17 µM (inactive)
same,GI50,SK-MEL-2,7.59 µM (inactive)
same,GI50,SK-MEL-5,2.28 µM (inactive)
same,GI50,SK-OV-3,> 50.4 µM (inactive)
same,GI50,SN12C,10.6 µM (inactive)
same,GI50,SNB-19,> 63.4 µM (inactive)
same,GI50,SNB-75,> 100 µM (inactive)
same,GI50,SR,13.1 µM (inactive)
same,GI50,SW-620,1.58 µM (inactive)
same,GI50,T47D,11.9 µM (inactive)
same,GI50,TK-10,0.0376 µM (active)
same,GI50,U-251,0.528 µM (active)
same,GI50,UACC-257,0.192 µM (active)
same,GI50,UACC-62,6.95 µM (inactive)
same,GI50,UO-31,> 100 µM (inactive)
CC(C)(C)c1ccc(O)c(C(O)c2ccncc2)c1 (stereo not given),GI50,786-0,> 100 µM (inactive)
same,GI50,A549,83.2 µM (inactive)
same,GI50,ACHN,52.4 µM (inactive)
same,GI50,BT-549,> 100 µM (inactive)
same,GI50,CAKI-1,> 100 µM (inactive)
same,GI50,CCRF-CEM,> 100 µM (inactive)
same,GI50,COLO 205,> 100 µM (inactive)
same,GI50,DU-145,> 100 µM (inactive)
same,GI50,EKVX,44.6 µM (inactive)
same,GI50,HCC 2998,39.7 µM (inactive)
same,GI50,HCT-116,> 100 µM (inactive)
same,GI50,HCT-15,52.4 µM
same,GI50,HOP-62,> 100 µM (inactive)
same,GI50,HT-29,> 100 µM (inactive)
same,GI50,Hs-578T,37.7 µM (inactive)
same,GI50,IGROV-1,> 100 µM (inactive)
same,GI50,K562,61.4 µM (inactive)
same,GI50,KM12,> 100 µM (inactive)
same,GI50,MDA-MB-231,62.8 µM (inactive)
same,GI50,MOLT-4,76.4 µM (inactive)
same,GI50,Malme-3M,62.7 µM (inactive)
same,GI50,NCI-H226,72.1 µM (inactive)
same,GI50,NCI-H23,70.8 µM (inactive)
same,GI50,NCI-H460,> 100 µM (inactive)
same,GI50,NCI-H522,> 100 µM (inactive)
same,GI50,NCI/ADR-RES,53 µM (inactive)
same,GI50,OVCAR-3,> 100 µM (inactive)
same,GI50,OVCAR-5,70.8 µM (inactive)
same,GI50,OVCAR-8,> 100 µM (inactive)
same,GI50,RXF 393,45.4 µM (inactive)
same,GI50,SF-268,> 100 µM (inactive)
same,GI50,SF-539,> 100 µM (inactive)
same,GI50,SK-MEL-28,> 100 µM (inactive)
same,GI50,SK-MEL-5,24.1 µM (inactive)
same,GI50,SNB-75,68.7 µM (inactive)
same,GI50,SW-620,> 100 µM (inactive)
same,GI50,T47D,16.9 µM (inactive)
same,GI50,UO-31,> 100 µM (inactive)
